Patent US12458605B2, “Lipid nanoparticle” (National University Corporation Hokkaido University, priority 2020, dated 2025)

Legend:
[1] = Average particle size (ζ-Average) and PDI by dynamic light scattering (Zetasizer Nano ZSP); format: physicochemical
Protocol: The average particle size (ζ-Average) and PDI in PBS(−) of lipid nanoparticles were measured using “Zetasizer Nano ZSP”, an analyzer utilizing dynamic light scattering (manufactured by Malvern).
Measurement of average particle size and PDI of the lipid nanoparticles were carried out with the same method as the measurement of average particle size of mRNA-LNP.
The average particle size (ζ-Average) and PDI in PBS (−) of lipid nanoparticles were measured using “Zetasizer Nano ZSP”, an analyzer utilizing dynamic light scattering (manufactured by Malvern).

[2] = siRNA/mRNA encapsulation rate by Ribogreen reagent (section IV); format: physicochemical; conditions: for % mRNA encapsulation: FlucmRNA-loaded LNP, 50:10:38.5:1.5; for % siRNA encapsulation: F7siRNA-loaded LNP, 50:10:38.5:1.5, N/P ratio 6
Protocol: The encapsulation rates of siRNA and mRNA of lipid nanoparticles were measured with Ribogreen reagent. A solution diluted with TE buffer solution was arranged so that lipid nanoparticle concentration as nucleic acid concentration to be 8 μg/mL, as a solution for measuring nanoparticle surface nucleic acid concentration. In addition, a solution for measuring total nucleic acid concentration was arranged so that lipid nanoparticle concentration as nucleic acid concentration to be 1.2 μg/mL, which is 1% (w/w) concentration of X-triton100, by adding X-triton100. For 100 μL of each solution, 100 μL of Ribogreen (registered trademark) reagent (Quant-iT™ RiboGreen™ RNA Reagent, manufactured by Thermofisher Scientific) was mixed well in the wells of 96-well microplate (black, made of polystyrene, flat bottom, manufactured by Corning), and the fluorescence intensity at an excitation wavelength of 485 nm and a measurement wavelength of 528 nm was measured with a microplate reader. Nucleic acid concentration was calculated by calibration curve created by measuring the fluorescence intensity of nucleic acid solution containing 1% X-triton100 (nucleic acid concentration: 0-2.5 μg/mL) as same as aforementioned. Nucleic acid encapsulation rate of each lipid nanoparticle was calculated by the following formula: Encapsulation rate %=(nucleic acid concentration in solution for measuring total nucleic acid concentration (μg/mL)−nucleic acid concentration in solution for measuring nanoparticle surface nucleic acid concentration (μg/mL))/nucleic acid concentration in solution for measuring total nucleic acid concentration (μg/mL)×100. <Results>
The encapsulation rate of mRNA of lipid nanoparticles was measured using Ribogreen (manufactured by life technologies).

liver = experiment: In vivo Fluc activity of FlucmRNA-loaded LNP by in vivo imaging, liver; conditions: Balb/c mice, FlucmRNA-loaded LNP i.v. 0.1 mg mRNA/kg, 6 hours
Protocol: (§1) Then, each prepared FlucmRNA-loaded lipid nanoparticles were administered to Balb/c mice (Charles River Laboratories Japan, Inc., 7 weeks old, female) and in vivo gene expression activity was examined. Specifically, each FlucmRNA-loaded lipid nanoparticles were intravenously administered to Balb/c mice at 0.1 mg mRNA/kg, and Fluc activities in the liver and spleen at 6 hours later were measured. Fluc activity was measured by in vivo imaging system (Perkin Elmer, IVIS200) after administration of VivoGlo Luciferin, In Vivo Grade (Promega, P1041) dissolved with PBS to 15 mg/mL, via tail vein at a dose of 1.5 mg per mouse. The unit of Fluc activity is the emission intensity per unit area (Avg Radiance [p/s/cm2/sr]) at the maximum emission wavelength of about 560 nm. The results of measurement of the Fluc activity (Avg Radiance [p/s/cm2/sr]) in the liver and spleen of mice administered each FlucmRNA-loaded lipid nanoparticles are shown in Tables 5-7.

spleen = experiment: In vivo Fluc activity of FlucmRNA-loaded LNP by in vivo imaging, spleen; conditions: Balb/c mice, 6 hours; for Fluc Activity in spleen: FlucmRNA-loaded LNP i.v. 0.1 mg mRNA/kg; for Fluc activity in the spleen, compared with CL4F6: versus LNP comprising CL4F6 (Tables 5 and 6)
Protocol: as §1

[3] = Storage stability of FlucmRNA-loaded LNP at −80, 5, 25 and 40° C.; format: physicochemical; conditions: for quality at production (storage stability criteria): criteria: PDI 0.2 or less, encapsulation 80% or more; for period for which quality remained good, −80° C.: maximum storage period 1 week
Protocol: Lipid nanoparticles were allowed to stand at each temperature of −80° C., 5° C., 25° C., and 40° C., and after keeping for each period of time, average particle size, PDI, and nucleic acid encapsulation rate were measured. Lipid nanoparticles which satisfy following all three conditions were defined that the quality was remained well: the average particle size is maintained within +/−20 nm based on the date of LNP preparation; PDI remains high uniformity with a value of 0.2 or less; and the nucleic acid encapsulation rate is also maintained at 80% or more. As a result of measuring average particle size, PDI, and nucleic acid encapsulation rate after each FlucmRNA-loaded lipid nanoparticle was allowed to stand at −80° C., 5° C., 25° C., and 40° C. respectively and kept for each period of time, periods of time defined as the quality of the lipid nanoparticles was remained well are shown in Tables 13 and 14. The lipid nanoparticles which remain in good quality with standing at 5° C. for one week or more can be evaluated as having excellent stability.

F7 = experiment: In vivo F7 knockdown, plasma F7 enzyme activity (BIOPHEN FVII), Balb/c mice; conditions: i.v. 0.025 mg siRNA/kg, plasma at 24 hours; for F7 enzyme activity (Ratio using MC3 as 1): relative plasma F7 activity of MC3 LNP as 1
Protocol: Then, each prepared F7siRNA-loaded lipid nanoparticles were administered to Balb/c mice (Charles River Laboratories Japan, Inc., 5 weeks old, female) and in vivo F7 knockdown activity was examined. Specifically, BALB/c mice were intravenously administered F7siRNA-loaded lipid nanoparticles comprising the lipids described in Table 9 at 0.025 mg siRNA/kg and F7siRNA-loaded lipid nanoparticles comprising the lipids described in Tables 10 and 11 at 0.025 mg siRNA/kg, and the plasma F7 enzyme activity at 24 hours later was measured using BIOPHEN FVII (Biophen, A221304). Relative plasma F7 enzyme activity (%) of mice administered each F7siRNA-loaded lipid nanoparticles was calculated using plasma F7 enzyme activity of untreated mice as 100%. Furthermore, the ratio was calculated using the relative plasma F7 enzyme activity (%) of mice administered MC3-comprising F7siRNA-loaded lipid nanoparticles as 1. The results of measurement of CL4F6 derivative nanoparticles are shown in Tables 9 and 10, and results of measurement of CL15F6 derivative nanoparticles in Table 11.

[4] = FlucmRNA-loaded LNP, 50:10:38.5:1.5
[5] = FlucmRNA-loaded LNP, lipid:DSPC:cholesterol:DMG-PEG2K 50:10:38.5:1.5
[6] = F7siRNA-loaded LNP, 50:10:38.5:1.5, N/P ratio 6

| Molecule | PDI [1, 4] | ζ-Average (nm) [1, 5] [nm] | % mRNA encapsulation [2] [%] | Fluc Activity in liver (liver) | Fluc Activity in spleen (spleen) | quality at production (storage stability criteria) [3] | PDI [1, 6] | ζ-Average (nm) [1, 6] [nm] | % siRNA encapsulation [2] [%] | Fluc activity in the spleen, compared with CL15F6 (spleen; 0.1 mg mRNA/kg, versus LNP comprising CL15F6 (Table 7)) | F7 enzyme activity (Ratio using MC3 as 1) (F7) | period for which quality remained good, −80° C. [3] [week] | period for which quality remained good, 5° C. ([3]; maximum storage period 5 weeks) [weeks] | period for which quality remained good, 25° C. ([3]; maximum storage period 5 weeks) [weeks] | period for which quality remained good, 40° C. (weeks) ([3]; maximum storage period 5 weeks) | Fluc activity in the spleen, compared with CL4F6 (spleen; 0.1 mg mRNA/kg) | F7 enzyme activity (%) (F7; untreated mice as 100%) | period for which quality remained good, 40° C. (days) ([3]; maximum storage period 5 weeks) [day days] | period for which quality remained good, 40° C. ([3]; maximum storage period 5 weeks) [days] |
| --- | --- | --- | --- | --- | --- | --- | --- | --- | --- | --- | --- | --- | --- | --- | --- | --- | --- | --- | --- |
| CCCCCCCCCCCCCCCC(=O)OCCCCCCC(O)(CCCCCCOC(=O)CCCCCCCCCCCCCCC)CCCCN(CCC)CCC [CL4F 16-0] | 0.225 | 158.30 | 86.2 | 2.32E+04 Avg Radiance [p/s/cm2/sr] | 2.83E+05 Avg Radiance [p/s/cm2/sr] | Does not meet the criteria for “good” at production |  |  |  |  |  |  |  |  |  |  |  |  |  |
| CCCCCCCC(CCC)C(=O)OCCCCCCC(O)(CCCCCCOC(=O)C(CCC)CCCCCCC)CCCCOC(=O)C1CCN(C)CC1 (stereo not drawn) [CL15F 9-3] | 0.044 | 196.80 | 95.5 | 1.16E+06 Avg Radiance [p/s/cm2/sr] | 7.47E+06 Avg Radiance [p/s/cm2/sr] |  | 0.172 | 200.4 | 98.3 | higher Fluc activity | 1.50 | 0 | 5 | 5 | 5 weeks |  |  |  |  |
| CCCCCCCCC(CC)C(=O)OCCCCCCC(O)(CCCCCCOC(=O)C(CC)CCCCCCCC)CCCCN(CCC)CCC (stereo not drawn) [CL4F 10-2] | 0.068 | 93.60 | 98.6 | 3.02E+07 Avg Radiance [p/s/cm2/sr] | 6.40E+06 Avg Radiance [p/s/cm2/sr] |  | 0.024 | 115.60 | 99.6 |  |  | 0 | 5 | 1 |  | higher Fluc activity | 11.4 | 0 |  |
| CCCCCC(CCC)C(=O)OCCCCCCC(O)(CCCCCCOC(=O)C(CCC)CCCCC)CCCCN(CCC)CCC (stereo not drawn) [CL4F 7-3] | 0.025 | 133.90 | 98.1 | 3.43E+05 Avg Radiance [p/s/cm2/sr] | 6.64E+05 Avg Radiance [p/s/cm2/sr] |  |  |  |  |  |  | 0 | 5 | 5 |  |  |  | 0 |  |
| 7-hydroxy-7-(4-((1-methylpiperidine-4-carbonyl)oxy)butyl)tridecan-1,13-diyl bis(2-(4,4-dimethylpentan-2-yl)-5,7,7-trimethyloctanoate [CL15G6] |  |  |  |  |  |  |  |  |  |  |  | 1 | 5 | 5 | 5 weeks |  |  |  |  |
| CCCCCCCC(CCCC)C(=O)OCCCCCCC(O)(CCCCCCOC(=O)C(CCCC)CCCCCCC)CCCCN(CCC)CCC (stereo not drawn) [CL4F 9-4] | 0.002 | 95.29 | 99.1 | 2.55E+07 Avg Radiance [p/s/cm2/sr] | 8.69E+06 Avg Radiance [p/s/cm2/sr] |  |  |  |  |  |  | 1 | 5 | 5 | 1 week weeks | higher Fluc activity |  |  |  |
| CCCCC(CC)C(=O)OCCCCCCC(O)(CCCCCCOC(=O)C(CC)CCCC)CCCCOC(=O)C1CCN(C)CC1 (stereo not drawn) [CL15F 6-2] |  |  |  |  |  | Does not meet the criteria for “good” at production | 0.534 | 390.7 | 100.4 |  | 1.87 |  |  |  |  |  |  |  |  |
| CCCCCCCC(CCCCCC)C(=O)OCCCCCCC(O)(CCCCCCOC(=O)C(CCCCCC)CCCCCCC)CCCCN(CCC)CCC (stereo not drawn) [CL4F 9-6] | 0.021 | 89.18 | 99.1 | 9.61E+07 Avg Radiance [p/s/cm2/sr] | 3.89E+06 Avg Radiance [p/s/cm2/sr] |  |  |  |  |  |  | 1 | 5 | 5 | 5 weeks |  |  |  |  |
| CCCCCC(CCCC)C(=O)OCCCCCCC(O)(CCCCCCOC(=O)C(CCCC)CCCCC)CCCCN(CCC)CCC (stereo not drawn) [CL4F 7-4] | 0.032 | 113.50 | 98.8 | 5.05E+06 Avg Radiance [p/s/cm2/sr] | 7.43E+06 Avg Radiance [p/s/cm2/sr] |  |  |  |  |  |  | 0 | 5 | 5 | 1 week weeks | higher Fluc activity |  |  |  |
| CCCCC(CCCC)C(=O)OCCCCCCC(O)(CCCCCCOC(=O)C(CCCC)CCCC)CCCCN(CCC)CCC [CL4F 6-4] | 0.023 | 141.10 | 97.2 | 2.17E+05 Avg Radiance [p/s/cm2/sr] | 2.95E+05 Avg Radiance [p/s/cm2/sr] |  |  |  |  |  |  | 0 | 5 | 5 |  |  |  |  | 3 |
